Data: patent US4039736A (Bristol-Myers Company, priority 1976, dated 1977)
Converted amounts (≈) assume the structure as drawn.

Assays:
P-388 leukemia = assay: transplanted mouse leukemia P-388 (ascitic); details: Example 7 column fraction
Method: (§1) The compounds of the present invention were also tested against various transplantable rodent tumer systems.
(§2) Single injection Day 1 intraperitoneally.?
(§3) T/C percent MST=median survival time in days: Treated/Control × 100

[1] = system: Streptococcus pyogenes A-9604; assay: MIC, standard tube dilution procedure; type: cell-based; details: Streptococcus pyogenes, A9604
[2] = system: Trichophyton mentagrophytes A-9870; assay: MIC, standard tube dilution procedure; type: cell-based; details: Trichophyton mentagrophytes, A9870
L-1210 leukemia [3] = assay: L-1210 mouse leukemia, purified compounds, BDF1 female mice
Method: Inoculum: 10^6 ascitic cells, i.p. into BDF1 female mice
Treatment: i.p. in 0.5 ml. volume
Evaluation: MST = median survival time in days; %T/C = MST treated/MST
(prolongation of host survival)

[4] = system: Candida tropicalis A-15051; assay: MIC, standard tube dilution procedure; type: cell-based; details: Candida tropicalis, A15051
Proteus mirabilis A-9900 = assay: MIC, standard tube dilution procedure; type: cell-based; details: Proteus mirabilis, A9900
[5] = system: Staphylococcus aureus A-9537; assay: MIC, standard tube dilution procedure; type: cell-based; details: Staphylococcus aureus, A9537
[6] = system: Streptococcus pneumoniae A-9585; assay: MIC, standard tube dilution procedure; type: cell-based; details: Streptococcus pneumoniae, A9585
[7] = system: Klebsiella pneumoniae A-9977; assay: MIC, standard tube dilution procedure; type: cell-based; details: Klebsiella pneumoniae, A9977
[8] = system: Cryptococcus neoformans A-1503; assay: MIC, standard tube dilution procedure; type: cell-based; details: Cryptococcus neoformans, A1503
Candida krusei A-15052 = assay: MIC, standard tube dilution procedure; type: cell-based; details: Pichia kudriavzevii, A15052
Escherichia coli A-21780 = assay: MIC, standard tube dilution procedure; type: cell-based; details: Escherichia coli, A21780
[9] = system: Staphylococcus aureus A-9497; assay: MIC, standard tube dilution procedure; type: cell-based; details: Staphylococcus aureus, A9497
[10] = acute intraperitoneal LD50 in mice; details: mouse, in vivo, ip
Escherichia coli A-15119 = assay: MIC, standard tube dilution procedure; type: cell-based; details: Escherichia coli, A15119
Candida albicans A-9540 = assay: MIC, standard tube dilution procedure; type: cell-based; details: Candida albicans, A9540
L-1210 leukemia [11] = assay: transplanted mouse leukemia L-1210 (ascitic); details: Example 7 column fraction
Method: as §1, §2, §3

[12] = 3.2 mg/kg/day i.p., Day 1, 1 injection
[13] = 3.2 mg/kg/day i.p., Day 1→5, 5 injections
[14] = 6.4 mg/kg/day i.p., Day 1, 1 injection
[15] = 6.4 mg/kg/day i.p., Day 1→5, 4 injections
[16] = 12.8 mg/kg/day i.p., Day 1, 1 injection
[17] = .2 mg/kg/day i.p., Day 1→5, 5 injections
[18] = .4 mg/kg/day i.p., Day 1, 1 injection
[19] = .4 mg/kg/day i.p., Day 1→5, 5 injections
[20] = .8 mg/kg/day i.p., Day 1, 1 injection
[21] = .8 mg/kg/day i.p., Day 1→5, 5 injections

CC[C@@]1(O)C[C@H](O[C@H]2C[C@H](N(C)C)[C@H](O[C@H]3C[C@H](O)[C@H](O[C@H]4C[C@H](O)[C@H](O)[C@H](C)O4)[C@H](C)O3)[C@H](C)O2)c2c(cc3c(c2O)C(=O)c2c(O)ccc(O)c2C3=O)[C@H]1C(=O)OC [marcellomycin]
activity on P-388 mouse leukemia (P-388 leukemia): high activity | MIC [1]: 0.03 µg/mL (≈ 0.0355 µM) | MIC [2]: > 125 µg/mL | Average Weight Change (L-1210 leukemia [3]; [12]): -0.7 g | MST %T/C (L-1210 leukemia [3]; [12]): 157% | MST Days (L-1210 leukemia [3]; [12]): 11.0 days | Survivors Day 5 (L-1210 leukemia [3]; [12]): 6/6 | Average Weight Change (L-1210 leukemia [3]; [13]): -1.2 g | MST %T/C (L-1210 leukemia [3]; [13]): 86% | MST Days (L-1210 leukemia [3]; [13]): 6.0 days | Survivors Day 5 (L-1210 leukemia [3]; [13]): 3/6 | Average Weight Change (L-1210 leukemia [3]; [14]): -0.7 g | MST %T/C (L-1210 leukemia [3]; [14]): 157% | MST Days (L-1210 leukemia [3]; [14]): 11.0 days | Survivors Day 5 (L-1210 leukemia [3]; [14]): 6/6 | Average Weight Change in g. (L-1210 leukemia [3]; [15]): TOXIC | MST %T/C (L-1210 leukemia [3]; [15]): TOXIC | MST Days (L-1210 leukemia [3]; [15]): TOXIC | Survivors Day 5 (L-1210 leukemia [3]; [15]): 0/6 | Average Weight Change (L-1210 leukemia [3]; [16]): -0.7 g | MST %T/C (L-1210 leukemia [3]; [16]): 143% | MST Days (L-1210 leukemia [3]; [16]): 10.0 days | Survivors Day 5 (L-1210 leukemia [3]; [16]): 3/6 | Average Weight Change (L-1210 leukemia [3]; [17]): -1.1 g | MST %T/C (L-1210 leukemia [3]; [17]): 129% | MST Days (L-1210 leukemia [3]; [17]): 9.0 days | Survivors Day 5 (L-1210 leukemia [3]; [17]): 6/6 | Average Weight Change (L-1210 leukemia [3]; [18]): -0.8 g | MST %T/C (L-1210 leukemia [3]; [18]): 129% | MST Days (L-1210 leukemia [3]; [18]): 9.0 days | Survivors Day 5 (L-1210 leukemia [3]; [18]): 6/6 | Average Weight Change (L-1210 leukemia [3]; [19]): 0 g | MST %T/C (L-1210 leukemia [3]; [19]): 129% | MST Days (L-1210 leukemia [3]; [19]): 9.0 days | Survivors Day 5 (L-1210 leukemia [3]; [19]): 6/6 | Average Weight Change (L-1210 leukemia [3]; [20]): 0 g | MST %T/C (L-1210 leukemia [3]; [20]): 150% | MST Days (L-1210 leukemia [3]; [20]): 10.5 days | Survivors Day 5 (L-1210 leukemia [3]; [20]): 6/6 | Average Weight Change (L-1210 leukemia [3]; [21]): -0.2 g | MST %T/C (L-1210 leukemia [3]; [21]): 143% | MST Days (L-1210 leukemia [3]; [21]): 10.0 days | Survivors Day 5 (L-1210 leukemia [3]; [21]): 6/6 | potency relative to musettamycin in inhibitory effects on L-1210 (L-1210 leukemia [3]; purified, L-1210 mouse leukemia): about four times | MIC [4]: 125 µg/mL (≈ 148 µM) | MIC (Proteus mirabilis A-9900): > 125 µg/mL | MIC [5]: 1 µg/mL (≈ 1.18 µM) | MIC [6]: 0.03 µg/mL (≈ 0.0355 µM) | MIC [7]: 125 µg/mL (≈ 148 µM) | MIC [8]: 125 µg/mL (≈ 148 µM) | MIC (Candida krusei A-15052): 125 µg/mL (≈ 148 µM) | MIC (Escherichia coli A-21780): 32 µg/mL (≈ 37.8 µM) | MIC [9]: 1 µg/mL (≈ 1.18 µM) | LD50 [10]: 6.35 to 10.6 mg/kg | MIC (Escherichia coli A-15119): 125 µg/mL (≈ 148 µM) | MIC (Candida albicans A-9540): 125 µg/mL (≈ 148 µM) | activity on L-1210 mouse leukemia (L-1210 leukemia [11]): high activity
